# Source: patent publication US20180050035A1, “ANTIFUNGAL TREATMENT OF ROSACEA” (Gerbe Labs Inc., priority 2016, published 2018)
# Legend:
# Assay type in all cases: cell-based
# [1] = test system: Aspergillus fumigatus + Candida albicans co-culture (1:1); test: Broth microdilution MIC assay against co-culture of fungal spores; conditions: Table 4, repeated MIC study, agent alone, listed as Itraconazone
# Protocol: Broth Microdilution Minimal Inhibitory Concentration (MIC) assays were performed to obtain the MIC values for Itraconazole and Ketoconazole with an antibiotic (Vancomycin or Tobramycin or Amikacin) against the two fungal strains.
# The strains were maintained as a frozen glycerol stocks at −80° C. The fungal strains were prepared by thawing a glycerol stock, streaking and growing onto Sabouraud's Dextrose Agar (SDA) plates, overnight at 35±2° C. in aerobic conditions and used for the assay.
# The completely synthetic medium RPMI-1640 (with glutamine, without bicarbonate, and with phenol red as a pH indicator) was buffered with 0.165 mol/L MOPS (3-[N-morpholino] propanesulfonic acid) buffer was used as the growth medium for the fungal strains. Overnight cultures of the fungal strains were grown on Difco™ Sabouraud's Dextrose Agar (SDA) plates at 35° C. To induce conidium and sporangiospore formation, the culture plates were transferred to incubator and grown for 5-7 days 30° C. or until good sporulation was obtained. Approximately, 10 mL of 0.85% saline containing 0.01% of Tween 80 was used to poured on to the agar plate containing conidia or sporangiospores and hyphal fragments. The suspension containing conidia or sporangiospores and hyphal fragments was aspirated and transferred to a sterile tube. This mixture was filtered to separate the spores from the vegetative cells of the fungi. […]
# gram negative bacteria = test: Culture of Patient 7, sensitivity of isolate; conditions: Patient 7 culture
# Source text: (§1) The patient underwent the standard workup for CRS, sleep disorder, and nasal obstruction, plus our diagnostic skin test and sinus CT scan.
# Candida albicans = test: Culture of Patient 7, sensitivity of isolate; conditions: Patient 7 culture
# Source text: as §1
structure (smiles),measurement,setting,value
CCC(C)n1ncn(-c2ccc(N3CCN(c4ccc(OCC5COC(Cn6cncn6)(c6ccc(Cl)cc6Cl)O5)cc4)CC3)cc2)c1=O (stereo not drawn) [Itraconazole],MIC,[1],1 µg/mL
NC[C@H]1O[C@H](O[C@H]2[C@H](O)[C@@H](O[C@H]3O[C@H](CO)[C@@H](O)[C@H](N)[C@H]3O)[C@H](N)C[C@@H]2N)[C@H](N)C[C@@H]1O [tobramycin],Sensitivity of cultured isolate,gram negative bacteria,sensitive
CC(=O)N1CCN(c2ccc(OCC3COC(Cn4ccnc4)(c4ccc(Cl)cc4Cl)O3)cc2)CC1 (stereo not drawn) [Ketoconazole],Sensitivity of cultured isolate,Candida albicans,sensitive
